What was measured:
[1] = biological target: T1, CYP2E1 (Rattus norvegicus, UniProt P05182); test: In vivo inhibition of metabolism of DEN by CYP2E1 in rats (toxicokinetics of DEN); parameters: species or system SD rats
T1 construct: from tissue; host or cells: whole animal (SD rats); endogenous enzyme in vivo
Experimental: Experimental method: An inhibitory effect of the compound SMI0 on CYP2E1 in rats was investigated by a self-controlled crossover experiment design. In a first round of experiments, DEN alone was intraperitoneally injected at 50 mg/kg (30 SD rats in total) in the first week; after a one-week interval, a second round of experiments were conducted as follows: each rat was first intragastrically administered with the compound SMI0 at a low, medium, or high dose (6 mg/kg, 30 mg/kg, or 150 mg/kg), and 5 min later, each rat was intraperitoneally injected with DEN at 50 mg/kg (10 rats were set for each of low, medium, and high doses); blood was collected at 2 min, 7 min, 15 min, and 30 min and 1 h, 2 h, 4 h, 6 h, 9 h, 12 h, 24 h, 36 h, 48 h, and 60 h; a DEN concentration in plasma was determined at different blood collection time points, and a toxicokinetic parameter of DEN was calculated; and plasma DEN was detected by high performance liquid chromatography (HPLC) as follows: 100 μL of plasma was added to 10 μL of perchloric acid, a resulting mixture was vortexed for 3 min and then centrifuged at 12,000 rpm for 10 min, and 10 μL of a resulting supernatant was collected and injected into an instrument, where the PLC was conducted with methanol:water=50:50 as a mobile phase and a detection wavelength of 240 nm.

[2] = test system: HepG2 liver cancer cells / macrophage RAW264.7; test: HepG2 cells co-cultivated with RAW264.7 macrophage supernatant; assay type: cell-based; conditions: SMI0 intervention groups (especially 4 μmol/L) vs macrophage co-cultivation group, P<0.001
Experimental: Experimental method: A supernatant of a murine macrophage RAW264.7 was collected to establish a co-cultivation system with the HepG2 liver cancer cell, thereby simulating a macrophage inflammatory microenvironment of liver cancer. In the SMI0 intervention groups, SMI0 was added at different concentrations (0 μmol/L, 0.16 μmol/L, 0.8 μmol/L, 4 μmol/L, 20 μmol/L, and 100 μmol/L) while interleukin was added for induction. Culture supernatants of the SMI0 intervention groups were collected to prepare conditional media. HepG2 liver cancer cells in a logarithmic growth phase were adopted. The proliferation activity of HepG2 was determined by a CCK8 method, a migration ability of HepG2 was determined by wound-healing assay, and an apoptosis ability of HepG2 was determined by FCM.

[3] = test system: liver steatosis and hepatitis in mice caused by a high-fat diet; test: Mouse liver steatosis and hepatitis model induced by a high-fat diet; assay type: in vivo, C57/6J mice; conditions: 22 weeks, vs model group
Experimental: Experimental method: Healthy male C57/6J mice were fed with a high-fructose, high-fat, and high-cholesterol feed to prepare mouse liver steatosis and hepatitis models, and a control group was fed with a low-fat and low-sugar control feed. An SMI0 intervention group was divided into a low-dose intervention group and a high-dose intervention group, which were intragastrically administered with the compound SMI0 at 30 mg/kg and 150 mg/kg every day from the beginning of modeling to the 22nd week of modeling. At the end of the 22-week experiment, blood was collected from the orbit, a body weight was measured, and then the mice each were sacrificed. The weight and appearance of a liver (color, texture, and presence or absence of nodules of the liver) were recorded. Some liver specimens were subjected to HE staining and then observed, and a steatosis score of mice in each group was recorded; and Masson staining was conducted to evaluate a liver fibrosis status of mice, and an oil red O staining area percentage and an LCA staining inflammation score were determined (model group, n=8 mice; SMI0 compound low-dose group, […]).
The pathological results of HE staining of a liver tissue were subjected to quantitative scoring based on the following criteria to determine a steatosis severity:
The pathological results of Masson staining of a liver tissue were subjected to quantitative scoring based on the following criteria to determine a fibrosis severity: […]

[4] = test system: U251 glioma cells; test: Direct effect on U251 glioma cells in vitro (CCK8); assay type: cell-based, human; conditions: up to 128 μmol/L or 200 μmol/L
Experimental: Experimental method: GL261 murine glioma cells and U251 human glioma cells in a logarithmic growth phase each were selected and inoculated into a 96-well plate at a concentration of 5*10^5 cells/mL, then 100 μL of a cell suspension was added to each well, and 12 h later, a medium was discarded; 200 μL of a basic medium including SMI0 at different concentrations ([…]) was added to each well, and 24 h later, 10 μL of a CCK8 reagent was added to each well; and the cells were further cultivated for 2 h, and an absorbance OD value of each well was determined at 450 nm by a microplate reader. 3 replicates were set for each well, and an average was taken. The proliferation activity was calculated based on the OD value.

[5] = test system: GL261 cells / M2 microglial cells; test: GL261 cells co-cultivated with M2 microglial cells; assay type: cell-based, mouse; conditions: SMI0 50 μmol/L vs M2 microglial cell co-cultivation group
Experimental: Experimental method: 10 1-2 d newborn C57BL/6 WT mice and 6 CYP2E1^−/− mice were taken, primary microglial cells and astrocytes were collected and inoculated into 6-well plates, and 24 h later, culture supernatants were taken and co-cultivated with glioma cells. Experimental groups: control group; M2 model group; high-concentration, medium-concentration, and low-concentration SMI0 (50 μmol/L, 12.5 μmol/L, and 3.1 μmol/L) groups; and CYP2E1 gene-knockout group. 24 h later, supernatants were discarded; and […] and IL-13 each were added at 20 ng/mL to induce the transformation of microglial cells into the M2 type in the M2 model group and the high-concentration, medium-concentration, and low-concentration SMI0 groups, and different concentrations of SMI0 (50 μmol/L, 12.5 μmol/L, and 3.1 μmol/L) were also added in the intervention groups. The proliferation of glioma cells was determined by a CCK8 method, and an apoptosis proportion was determined by an Annexin V-FITC-PI apoptosis staining kit.

[6] = SMI0 high-dose 150 mg/kg ig daily
[7] = SMI0 low-dose 30 mg/kg ig daily

T1 sequence (P05182 whole entry): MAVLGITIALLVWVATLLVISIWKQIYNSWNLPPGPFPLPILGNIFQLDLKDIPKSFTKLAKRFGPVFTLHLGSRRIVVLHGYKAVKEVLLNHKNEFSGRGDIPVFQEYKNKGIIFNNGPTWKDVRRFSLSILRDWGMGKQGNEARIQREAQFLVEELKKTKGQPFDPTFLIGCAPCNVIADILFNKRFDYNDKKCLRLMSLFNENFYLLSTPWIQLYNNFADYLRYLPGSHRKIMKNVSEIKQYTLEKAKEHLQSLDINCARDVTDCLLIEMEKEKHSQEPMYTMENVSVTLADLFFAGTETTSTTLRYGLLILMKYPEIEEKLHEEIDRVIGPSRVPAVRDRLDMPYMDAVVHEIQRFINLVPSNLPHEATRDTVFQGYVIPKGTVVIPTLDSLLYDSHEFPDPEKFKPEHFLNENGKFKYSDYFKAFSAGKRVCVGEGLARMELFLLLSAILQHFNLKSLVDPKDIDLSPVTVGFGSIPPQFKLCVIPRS

## CC(=O)c1scnc1C [SMI0]
[1]; SMI0 high dose 150 mg/kg ig
  inhibition rate (CL of DEN): 86.77%
[1]; SMI0 low dose 6 mg/kg ig
  inhibition rate (CL of DEN): 62.43%
[1]; SMI0 medium dose 30 mg/kg ig
  inhibition rate (CL of DEN): 80.42%
[2]
  apoptosis ability of HepG2 liver cancer cells: significantly enhanced
  migration ability of HepG2 liver cancer cells: significantly weakened
  proliferation activity of HepG2 liver cancer cells: significantly weakened
[3]; [6]
  liver inflammation level (number of LCA-positive cell staining foci): significantly reduced
  oil red O staining area percentage: significantly reduced
  steatosis score: significantly reduced
[3]; [7]
  liver coefficient: significantly reduced
  oil red O staining area percentage: significantly reduced
  steatosis score: significantly reduced
[4]
  effect on the proliferation of U251 glioma cells: no significant inhibitory effect
[5]
  apoptosis of GL261 cells: promoted
[5]; P<0.001
  proliferation of GL261 cells: significantly inhibited

From US20230277508A1, “USE OF COMPOUND AS CYP2E1 INHIBITOR” (SHANGHAI LING XI BIOTECHNOLOGY DEVELOPMENT CO., LTD., priority 2020, published 2023)
